In ChEMBL document CHEMBL1152560, “Substituted 2-arylbenzothiazoles as kinase inhibitors: hit-to-lead optimization” (Bioorg Med Chem, 2009):

Tests used:
[1] = target: CDK1/Cyclin E (Homo sapiens) (UniProt P06493+P24864); assay: Residual activity of CDK1/Cyclin E at 0.1 uM by microplate scintillation counting; type: protein-complex assay
[2] = target: T1, TGF-beta receptor type-1 (Homo sapiens) (UniProt P36897); assay: Residual activity of TGFB-R1 at 1 uM by microplate scintillation counting
T1 sequence (whole entry): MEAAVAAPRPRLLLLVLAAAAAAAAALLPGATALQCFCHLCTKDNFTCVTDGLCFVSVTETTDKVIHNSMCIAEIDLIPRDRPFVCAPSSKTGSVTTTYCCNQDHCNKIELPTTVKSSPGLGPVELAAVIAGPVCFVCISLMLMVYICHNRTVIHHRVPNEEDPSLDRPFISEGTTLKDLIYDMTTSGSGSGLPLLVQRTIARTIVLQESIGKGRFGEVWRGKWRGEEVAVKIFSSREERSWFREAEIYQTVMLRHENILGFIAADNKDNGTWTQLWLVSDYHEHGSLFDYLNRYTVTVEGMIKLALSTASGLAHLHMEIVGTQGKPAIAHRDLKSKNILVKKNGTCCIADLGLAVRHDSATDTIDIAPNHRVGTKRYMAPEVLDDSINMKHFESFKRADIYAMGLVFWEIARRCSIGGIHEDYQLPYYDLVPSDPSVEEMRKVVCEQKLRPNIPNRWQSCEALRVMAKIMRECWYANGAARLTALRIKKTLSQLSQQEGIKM

[3] = target: Eukaryotic translation initiation factor 2-alpha kinase 1 (Homo sapiens) (UniProt Q9BQI3); assay: Residual activity of HRI at 1 uM by microplate scintillation counting
[4] = target: Mitogen-activated protein kinase 9 (Homo sapiens) (UniProt P45984); assay: Residual activity of JNK2 at 10 uM by microplate scintillation counting
[5] = target: Focal adhesion kinase 1 (Homo sapiens) (UniProt Q05397); assay: Residual activity of FAK at 10 uM by microplate scintillation counting
[6] = target: Serine/threonine-protein kinase pim-1 (Homo sapiens) (UniProt P11309); assay: Residual activity of PIM1 at 0.1 uM by microplate scintillation counting
[7] = target: Mitogen-activated protein kinase kinase kinase 14 (Homo sapiens) (UniProt Q99558); assay: Residual activity of NIK at 1 uM by microplate scintillation counting
[8] = target: Focal adhesion kinase 1 (Homo sapiens) (UniProt Q05397); assay: Residual activity of FAK at 0.1 uM by microplate scintillation counting
[9] = target: T2, Tyrosine-protein kinase Tec (Homo sapiens) (UniProt P42680); assay: Residual activity of TEC at 1 uM by microplate scintillation counting
T2 sequence (whole entry): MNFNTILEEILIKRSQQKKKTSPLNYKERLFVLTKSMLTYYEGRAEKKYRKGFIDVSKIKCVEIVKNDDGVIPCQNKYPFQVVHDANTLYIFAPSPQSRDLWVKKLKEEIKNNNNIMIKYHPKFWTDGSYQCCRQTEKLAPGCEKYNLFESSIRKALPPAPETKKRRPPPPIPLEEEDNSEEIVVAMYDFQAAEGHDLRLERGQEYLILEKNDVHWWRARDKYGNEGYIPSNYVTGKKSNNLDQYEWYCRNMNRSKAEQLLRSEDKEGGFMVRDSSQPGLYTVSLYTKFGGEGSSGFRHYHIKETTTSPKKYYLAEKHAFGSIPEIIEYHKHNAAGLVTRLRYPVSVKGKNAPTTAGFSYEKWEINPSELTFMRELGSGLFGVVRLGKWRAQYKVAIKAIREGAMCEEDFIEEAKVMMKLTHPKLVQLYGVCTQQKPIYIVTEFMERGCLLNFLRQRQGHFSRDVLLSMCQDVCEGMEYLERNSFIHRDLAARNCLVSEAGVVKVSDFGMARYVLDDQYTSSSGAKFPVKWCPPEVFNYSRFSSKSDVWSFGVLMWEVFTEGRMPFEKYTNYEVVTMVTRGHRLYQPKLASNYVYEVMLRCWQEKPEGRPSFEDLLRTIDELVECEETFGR

[10] = target: Dual specificity mitogen-activated protein kinase kinase 1 (Homo sapiens) (UniProt Q02750); assay: Residual activity of wild type MEK1 at 0.1 uM by microplate scintillation counting
[11] = target: T3, Ephrin type-A receptor 8 (Homo sapiens) (UniProt P29322); assay: Residual activity of EPHA8 at 0.1 uM by microplate scintillation counting
T3 sequence (whole entry): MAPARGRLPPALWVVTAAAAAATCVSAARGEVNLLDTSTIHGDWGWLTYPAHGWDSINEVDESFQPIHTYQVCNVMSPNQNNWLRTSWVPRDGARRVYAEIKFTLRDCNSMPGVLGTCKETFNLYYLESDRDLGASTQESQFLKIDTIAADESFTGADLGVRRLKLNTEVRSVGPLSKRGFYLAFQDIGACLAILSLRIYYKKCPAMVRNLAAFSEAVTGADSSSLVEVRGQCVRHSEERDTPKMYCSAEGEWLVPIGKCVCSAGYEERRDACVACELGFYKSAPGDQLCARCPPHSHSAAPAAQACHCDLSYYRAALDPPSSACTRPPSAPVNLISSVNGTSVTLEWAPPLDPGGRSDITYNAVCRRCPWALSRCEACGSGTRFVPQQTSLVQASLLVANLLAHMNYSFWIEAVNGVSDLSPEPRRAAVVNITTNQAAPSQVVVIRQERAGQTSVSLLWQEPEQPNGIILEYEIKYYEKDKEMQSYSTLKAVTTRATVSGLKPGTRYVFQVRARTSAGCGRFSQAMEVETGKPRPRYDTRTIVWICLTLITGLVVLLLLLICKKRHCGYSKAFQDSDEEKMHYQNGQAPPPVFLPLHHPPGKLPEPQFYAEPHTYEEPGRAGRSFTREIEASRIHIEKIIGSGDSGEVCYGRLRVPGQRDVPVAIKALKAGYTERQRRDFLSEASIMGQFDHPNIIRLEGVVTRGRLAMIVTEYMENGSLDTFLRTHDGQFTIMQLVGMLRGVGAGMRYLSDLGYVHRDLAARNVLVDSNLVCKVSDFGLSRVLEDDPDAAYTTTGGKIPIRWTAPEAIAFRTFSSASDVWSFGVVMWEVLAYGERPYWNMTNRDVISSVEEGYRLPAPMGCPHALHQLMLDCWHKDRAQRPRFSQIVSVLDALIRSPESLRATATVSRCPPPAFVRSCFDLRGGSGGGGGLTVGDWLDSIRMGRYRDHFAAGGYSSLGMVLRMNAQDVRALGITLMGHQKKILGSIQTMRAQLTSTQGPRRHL

[12] = target: Insulin receptor-related protein (Homo sapiens) (UniProt P14616); assay: Residual activity of INSRR at 0.1 uM by microplate scintillation counting
Sequence of Insulin receptor-related protein (Homo sapiens) (P14616 27-742 limits assumed): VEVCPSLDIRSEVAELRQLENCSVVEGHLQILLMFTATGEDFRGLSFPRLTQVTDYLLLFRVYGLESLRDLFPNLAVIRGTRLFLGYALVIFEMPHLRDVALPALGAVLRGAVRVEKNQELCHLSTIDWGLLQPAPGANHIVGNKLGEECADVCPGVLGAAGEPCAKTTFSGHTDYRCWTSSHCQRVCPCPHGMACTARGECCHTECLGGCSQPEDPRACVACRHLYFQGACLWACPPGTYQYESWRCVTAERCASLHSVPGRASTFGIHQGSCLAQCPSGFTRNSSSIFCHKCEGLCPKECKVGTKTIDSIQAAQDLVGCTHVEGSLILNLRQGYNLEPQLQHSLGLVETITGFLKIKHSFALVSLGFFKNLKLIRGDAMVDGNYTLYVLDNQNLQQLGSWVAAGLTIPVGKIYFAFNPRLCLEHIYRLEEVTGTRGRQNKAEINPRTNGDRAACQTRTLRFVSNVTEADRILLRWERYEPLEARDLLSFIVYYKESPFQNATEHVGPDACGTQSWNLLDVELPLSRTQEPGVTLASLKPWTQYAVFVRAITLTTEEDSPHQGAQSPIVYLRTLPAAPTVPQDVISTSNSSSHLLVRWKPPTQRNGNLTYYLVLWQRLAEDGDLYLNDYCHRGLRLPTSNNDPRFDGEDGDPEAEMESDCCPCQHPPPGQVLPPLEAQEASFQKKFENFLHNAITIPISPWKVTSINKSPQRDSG
Sequence of Insulin receptor-related protein (Homo sapiens) (P14616 747-1297 limits assumed): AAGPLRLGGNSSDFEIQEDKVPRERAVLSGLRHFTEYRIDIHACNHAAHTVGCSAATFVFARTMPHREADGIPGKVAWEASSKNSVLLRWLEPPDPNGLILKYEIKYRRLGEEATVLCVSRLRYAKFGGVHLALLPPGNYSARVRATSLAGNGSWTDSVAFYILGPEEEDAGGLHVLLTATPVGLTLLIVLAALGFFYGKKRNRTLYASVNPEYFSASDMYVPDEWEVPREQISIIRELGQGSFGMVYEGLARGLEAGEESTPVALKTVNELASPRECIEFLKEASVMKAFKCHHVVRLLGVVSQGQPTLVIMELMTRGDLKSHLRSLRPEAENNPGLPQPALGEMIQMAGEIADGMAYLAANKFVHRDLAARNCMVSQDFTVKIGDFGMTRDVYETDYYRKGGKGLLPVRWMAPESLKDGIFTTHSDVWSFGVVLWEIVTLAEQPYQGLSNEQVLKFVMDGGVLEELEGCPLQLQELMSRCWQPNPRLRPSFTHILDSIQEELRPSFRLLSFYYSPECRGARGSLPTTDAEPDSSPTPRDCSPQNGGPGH

Sequence of CDK1/Cyclin E (Homo sapiens) (P06493 whole entry, looked up): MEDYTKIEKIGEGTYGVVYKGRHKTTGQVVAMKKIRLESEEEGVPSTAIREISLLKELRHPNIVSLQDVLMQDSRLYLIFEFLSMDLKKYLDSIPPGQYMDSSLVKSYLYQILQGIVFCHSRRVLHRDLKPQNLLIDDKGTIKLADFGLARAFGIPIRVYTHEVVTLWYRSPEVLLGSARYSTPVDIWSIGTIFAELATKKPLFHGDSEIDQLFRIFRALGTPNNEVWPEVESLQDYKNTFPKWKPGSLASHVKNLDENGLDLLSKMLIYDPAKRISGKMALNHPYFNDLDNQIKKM
Sequence of CDK1/Cyclin E (Homo sapiens) (P24864 whole entry, looked up): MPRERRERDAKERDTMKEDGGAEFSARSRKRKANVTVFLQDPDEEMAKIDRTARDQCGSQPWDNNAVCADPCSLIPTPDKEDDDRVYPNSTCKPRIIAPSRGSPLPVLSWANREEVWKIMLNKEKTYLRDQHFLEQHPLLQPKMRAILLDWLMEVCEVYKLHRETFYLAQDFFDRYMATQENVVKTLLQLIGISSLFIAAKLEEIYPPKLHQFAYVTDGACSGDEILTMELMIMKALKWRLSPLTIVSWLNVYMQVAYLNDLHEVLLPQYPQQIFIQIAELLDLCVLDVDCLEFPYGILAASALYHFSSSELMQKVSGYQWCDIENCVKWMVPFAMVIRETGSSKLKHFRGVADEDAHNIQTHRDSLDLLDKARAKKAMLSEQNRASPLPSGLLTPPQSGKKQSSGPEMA
Sequence of Mitogen-activated protein kinase 9 (Homo sapiens) (P45984 whole entry, looked up): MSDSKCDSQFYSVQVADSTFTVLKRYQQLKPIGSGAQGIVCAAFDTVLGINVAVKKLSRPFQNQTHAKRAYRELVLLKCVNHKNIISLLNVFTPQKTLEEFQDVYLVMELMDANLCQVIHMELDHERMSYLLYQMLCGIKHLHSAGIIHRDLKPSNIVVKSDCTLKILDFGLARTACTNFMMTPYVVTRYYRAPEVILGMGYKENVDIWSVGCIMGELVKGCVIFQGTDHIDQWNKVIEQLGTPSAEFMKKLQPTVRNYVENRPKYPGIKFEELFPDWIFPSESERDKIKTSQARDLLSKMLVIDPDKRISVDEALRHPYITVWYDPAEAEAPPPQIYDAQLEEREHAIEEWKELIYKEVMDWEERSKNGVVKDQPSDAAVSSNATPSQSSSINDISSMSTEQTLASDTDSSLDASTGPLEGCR
Sequence of Dual specificity mitogen-activated protein kinase kinase 1 (Homo sapiens) (Q02750 whole entry): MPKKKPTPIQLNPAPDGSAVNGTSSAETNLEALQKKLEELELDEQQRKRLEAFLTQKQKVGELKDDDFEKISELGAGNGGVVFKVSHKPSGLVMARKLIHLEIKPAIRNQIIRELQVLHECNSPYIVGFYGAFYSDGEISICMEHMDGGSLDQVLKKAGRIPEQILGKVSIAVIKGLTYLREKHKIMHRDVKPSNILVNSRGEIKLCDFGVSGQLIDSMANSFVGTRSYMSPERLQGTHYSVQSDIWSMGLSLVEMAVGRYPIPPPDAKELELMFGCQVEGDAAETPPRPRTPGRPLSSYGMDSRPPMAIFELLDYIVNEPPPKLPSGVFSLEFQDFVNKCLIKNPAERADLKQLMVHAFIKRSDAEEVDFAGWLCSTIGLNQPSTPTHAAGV
Sequence of Mitogen-activated protein kinase kinase kinase 14 (Homo sapiens) (Q99558 whole entry, looked up): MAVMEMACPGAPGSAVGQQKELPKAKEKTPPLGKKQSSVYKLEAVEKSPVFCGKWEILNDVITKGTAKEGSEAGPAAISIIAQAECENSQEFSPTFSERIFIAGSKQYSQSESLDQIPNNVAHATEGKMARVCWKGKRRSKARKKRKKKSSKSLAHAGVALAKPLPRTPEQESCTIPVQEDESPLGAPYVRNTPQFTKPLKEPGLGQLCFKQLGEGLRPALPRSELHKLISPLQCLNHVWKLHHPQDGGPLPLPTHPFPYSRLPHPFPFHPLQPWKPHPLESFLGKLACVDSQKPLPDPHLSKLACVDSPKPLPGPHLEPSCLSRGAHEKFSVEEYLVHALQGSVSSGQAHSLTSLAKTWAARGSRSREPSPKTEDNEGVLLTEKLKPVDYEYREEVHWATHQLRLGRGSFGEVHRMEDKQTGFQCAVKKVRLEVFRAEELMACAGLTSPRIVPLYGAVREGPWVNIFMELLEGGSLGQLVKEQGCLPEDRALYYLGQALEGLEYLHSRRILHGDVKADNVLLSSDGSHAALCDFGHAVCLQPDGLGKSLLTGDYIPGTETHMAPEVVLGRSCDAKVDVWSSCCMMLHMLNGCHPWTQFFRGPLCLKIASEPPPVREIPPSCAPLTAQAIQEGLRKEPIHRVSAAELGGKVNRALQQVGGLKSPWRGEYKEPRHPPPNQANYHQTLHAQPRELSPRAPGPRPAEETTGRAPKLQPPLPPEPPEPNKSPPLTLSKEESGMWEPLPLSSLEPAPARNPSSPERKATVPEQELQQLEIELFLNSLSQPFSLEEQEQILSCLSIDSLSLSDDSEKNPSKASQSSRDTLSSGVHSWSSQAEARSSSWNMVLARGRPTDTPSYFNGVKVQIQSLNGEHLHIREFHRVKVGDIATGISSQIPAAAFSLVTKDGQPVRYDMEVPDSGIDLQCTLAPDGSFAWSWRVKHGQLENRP
Sequence of Serine/threonine-protein kinase pim-1 (Homo sapiens) (P11309 whole entry, looked up): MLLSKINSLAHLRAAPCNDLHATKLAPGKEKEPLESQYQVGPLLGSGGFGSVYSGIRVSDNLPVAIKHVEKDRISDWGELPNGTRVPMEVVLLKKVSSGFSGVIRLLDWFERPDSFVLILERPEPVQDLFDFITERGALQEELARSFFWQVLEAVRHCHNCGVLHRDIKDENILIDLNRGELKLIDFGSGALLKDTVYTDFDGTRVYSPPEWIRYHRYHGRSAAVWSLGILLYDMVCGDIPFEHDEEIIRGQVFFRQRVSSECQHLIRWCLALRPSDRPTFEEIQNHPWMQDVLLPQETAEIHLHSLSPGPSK
Sequence of Eukaryotic translation initiation factor 2-alpha kinase 1 (Homo sapiens) (Q9BQI3 whole entry): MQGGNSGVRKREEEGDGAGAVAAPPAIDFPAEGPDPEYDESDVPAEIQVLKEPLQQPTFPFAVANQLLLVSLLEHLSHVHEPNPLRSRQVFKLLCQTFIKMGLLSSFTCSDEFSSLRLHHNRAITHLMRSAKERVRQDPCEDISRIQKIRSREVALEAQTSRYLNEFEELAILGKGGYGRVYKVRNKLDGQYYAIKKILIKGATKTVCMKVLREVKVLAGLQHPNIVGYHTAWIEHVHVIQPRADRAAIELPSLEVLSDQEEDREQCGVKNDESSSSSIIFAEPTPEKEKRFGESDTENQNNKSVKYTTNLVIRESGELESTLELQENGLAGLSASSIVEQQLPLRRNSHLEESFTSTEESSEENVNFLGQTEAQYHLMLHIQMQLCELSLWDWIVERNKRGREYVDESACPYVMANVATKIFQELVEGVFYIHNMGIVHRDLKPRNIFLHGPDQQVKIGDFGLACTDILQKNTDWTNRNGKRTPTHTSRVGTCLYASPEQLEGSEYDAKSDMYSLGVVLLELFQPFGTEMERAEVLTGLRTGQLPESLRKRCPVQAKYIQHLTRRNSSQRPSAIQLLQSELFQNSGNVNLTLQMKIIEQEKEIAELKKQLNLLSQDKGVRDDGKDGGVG

residual activity [1]	residual activity [2]	residual activity [3]	residual activity [4]	residual activity [5]	residual activity [6]	residual activity [7]	residual activity [8]	residual activity [9]	residual activity [10]	residual activity [11]	residual activity [12]	SMILES
85%	103%	108%	96%	93%	100%	85%	94%	96%	87%	109%	96%	COc1cc2c(Oc3ccc(-c4nc5ccccc5s4)cc3)ncnc2cc1OCCCN1CCN(C)CC1
78%	98%	108%	93%	93%	95%	93%	99%	93%	101%	108%	97%	COc1cc2c(Oc3ccc(-c4nc5ccccc5s4)cc3)ncnc2cc1OCCCN1CCCC1
89%	107%	87%	122%	84%	76%	88%	98%	90%	79%	101%	116%	COc1cc2c(Oc3ccc(-c4nc5ccccc5s4)cc3F)ncnc2cc1OCCCN1CCN(C)CC1
